{"source": "patent US8952024B2", "about": "“Herbicidal pyrimidone derivatives” (E I du Pont de Nemours and Company, priority 2009, dated 2015)", "format_in_all_cases": "in vivo", "key": {"[1]": {"test_system": "barnyardgrass (Echinochloa crus-galli)", "test": "Test A pre-/postemergence plant response", "settings": "for Barnyardgrass plant response rating: visual injury, 0 to 100 scale (0 no effect, 100 complete control), approx. ten days", "method_in_brief": "(§1)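 Each species was treated preemergence via directed soil spray and postemergence at the one- to two-leaf stage, with compounds formulated in a non-phytotoxic solvent plus surfactant. Visual injury relative to untreated controls was rated after about ten days on a 0–100 scale.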"}, "[2]": {"test_system": "corn (Zea mays)", "test": "Test A pre-/postemergence plant response", "settings": "for Corn plant response rating: visual injury, 0 to 100 scale (0 no effect, 100 complete control), approx. ten days", "method_in_brief": "as §1"}, "[3]": {"test_system": "giant foxtail (Setaria faberii)", "test": "Test A pre-/postemergence plant response", "settings": "for Foxtail, Giant plant response rating: visual injury, 0 to 100 scale (0 no effect, 100 complete control), approx. ten days", "method_in_brief": "as §1"}, "[4]": {"test_system": "large crabgrass (Digitaria sanguinalis)", "test": "Test A pre-/postemergence plant response", "settings": "for Crabgrass, Large plant response rating: visual injury, 0 to 100 scale (0 no effect, 100 complete control), approx. ten days", "method_in_brief": "as §1"}, "[5]": {"test_system": "morningglory (Ipomoea spp.)", "test": "Test A pre-/postemergence plant response", "settings": "for Morningglory plant response rating: visual injury, 0 to 100 scale (0 no effect, 100 complete control), approx. ten days", "method_in_brief": "as §1"}, "[6]": {"test_system": "pigweed (Amaranthus retroflexus)", "test": "Test A pre-/postemergence plant response", "settings": "for Pigweed plant response rating: visual injury, 0 to 100 scale (0 no effect, 100 complete control), approx. ten days", "method_in_brief": "as §1"}, "[7]": {"test_system": "velvetleaf (Abutilon theophrasti)", "test": "Test A pre-/postemergence plant response", "settings": "for Velvetleaf plant response rating: visual injury, 0 to 100 scale (0 no effect, 100 complete control), approx. ten days", "method_in_brief": "as §1"}, "[8]": {"test_system": "wheat (Triticum aestivum)", "test": "Test A pre-/postemergence plant response", "settings": "for Wheat plant response rating: visual injury, 0 to 100 scale (0 no effect, 100 complete control), approx. ten days", "method_in_brief": "as §1"}, "[9]": {"test_system": "barnyardgrass (Echinochloa crus-galli)", "test": "Test B flooded paddy test", "settings": "for Plant response rating, Barnyardgrass: Flood (flooded paddy test), 13 to 15 days; for Barnyardgrass plant response rating: Flood, 31 g ai/ha, scale 0 to 100 (0 no effect, 100 complete control)", "method_in_brief": "(§2)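 Rice, umbrella sedge, ducksalad and barnyardgrass were grown to the 2-leaf stage, flooded to 3 cm, and compound was applied directly to the paddy water, with that depth kept throughout. After 13 to 15 days in the greenhouse, plants were visually rated against controls on a 0 (no effect) to 100 (complete control) scale.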"}, "[10]": {"test_system": "ducksalad (Heteranthera limosa)", "test": "Test B flooded paddy test", "settings": "for Plant response rating, Ducksalad: Flood (flooded paddy test), 13 to 15 days; for Ducksalad plant response rating: Flood, 31 g ai/ha, scale 0 to 100 (0 no effect, 100 complete control)", "method_in_brief": "as §2"}, "[11]": {"test_system": "rice (Oryza sativa)", "test": "Test B flooded paddy test", "settings": "for Plant response rating, Rice: Flood (flooded paddy test), 13 to 15 days; for Rice plant response rating: Flood, 31 g ai/ha, scale 0 to 100 (0 no effect, 100 complete control)", "method_in_brief": "as §2"}, "[12]": {"test_system": "umbrella sedge (Cyperus difformis)", "test": "Test B flooded paddy test", "settings": "for Plant response rating, Sedge, Umbrella: Flood (flooded paddy test), 13 to 15 days; for Sedge, Umbrella plant response rating: Flood, 31 g ai/ha, scale 0 to 100 (0 no effect, 100 complete control)", "method_in_brief": "as §2"}, "[13]": {"settings": "Postemergence, 125 g ai/ha, 0 to 100 scale where 0 is no effect and 100 is complete control"}, "[14]": {"settings": "Preemergence, 125 g ai/ha, 0 to 100 scale, 0 = no effect, 100 = complete control"}, "[15]": {"settings": "Preemergence, 500 g ai/ha, 0 to 100 scale, 0 = no effect, 100 = complete control"}, "[16]": {"settings": "125 g ai/ha, scale 0 to 100, 0 is no effect, 100 is complete control"}, "[17]": {"settings": "250 g ai/ha, flooded paddy test, visual rating on 0 to 100 scale (0 no effect, 100 complete control) after 13 to 15 days"}, "[18]": {"settings": "62 g ai/ha, scale of 0 to 100 where 0 is no effect and 100 is complete control"}}}
{"smiles": "COCCOCCn1c(-c2cc(F)cc(F)c2)ncc(C(=O)C2=C(O)CCCC2=O)c1=O", "note": "[Compound 171]", "values": [{"measurement": "Plant response rating, Barnyardgrass", "setting": "[1]; [13]", "result": 50}, {"measurement": "Barnyardgrass plant response rating", "setting": "[1]; Postemergence, 500 g ai/ha", "result": 90}, {"measurement": "Plant response rating, Barnyardgrass", "setting": "[1]; [14]", "result": 20}, {"measurement": "Plant response rating, Barnyardgrass", "setting": "[1]; [15]", "result": 70}, {"measurement": "Plant response rating, Corn", "setting": "[2]; [13]", "result": 30}, {"measurement": "Corn plant response rating", "setting": "[2]; Postemergence, 500 g ai/ha", "result": 40}, {"measurement": "Plant response rating, Corn", "setting": "[2]; [14]", "result": 0}, {"measurement": "Plant response rating, Corn", "setting": "[2]; [15]", "result": 20}, {"measurement": "Plant response rating, Foxtail, Giant", "setting": "[3]; [13]", "result": 60}, {"measurement": "Foxtail, Giant plant response rating", "setting": "[3]; Postemergence, 500 g ai/ha", "result": 90}, {"measurement": "Plant response rating, Foxtail, Giant", "setting": "[3]; [14]", "result": 30}, {"measurement": "Plant response rating, Foxtail, Giant", "setting": "[3]; [15]", "result": 80}, {"measurement": "Plant response rating, Crabgrass, Large", "setting": "[4]; [13]", "result": 60}, {"measurement": "Crabgrass, Large plant response rating", "setting": "[4]; Postemergence, 500 g ai/ha", "result": 90}, {"measurement": "Plant response rating, Crabgrass, Large", "setting": "[4]; [14]", "result": 70}, {"measurement": "Plant response rating, Crabgrass, Large", "setting": "[4]; [15]", "result": 100}, {"measurement": "Plant response rating, Morningglory", "setting": "[5]; [13]", "result": 100}, {"measurement": "Morningglory plant response rating", "setting": "[5]; Postemergence, 500 g ai/ha", "result": 100}, {"measurement": "Plant response rating, Morningglory", "setting": "[5]; [14]", "result": 0}, {"measurement": "Plant response rating, Morningglory", "setting": "[5]; [15]", "result": 60}, {"measurement": "Plant response rating, Pigweed", "setting": "[6]; [13]", "result": 100}, {"measurement": "Pigweed plant response rating", "setting": "[6]; Postemergence, 500 g ai/ha", "result": 100}, {"measurement": "Plant response rating, Pigweed", "setting": "[6]; [14]", "result": 50}, {"measurement": "Plant response rating, Pigweed", "setting": "[6]; [15]", "result": 80}, {"measurement": "Plant response rating, Velvetleaf", "setting": "[7]; [13]", "result": 100}, {"measurement": "Velvetleaf plant response rating", "setting": "[7]; Postemergence, 500 g ai/ha", "result": 100}, {"measurement": "Plant response rating, Velvetleaf", "setting": "[7]; [14]", "result": 80}, {"measurement": "Plant response rating, Velvetleaf", "setting": "[7]; [15]", "result": 100}, {"measurement": "Plant response rating, Wheat", "setting": "[8]; [13]", "result": 20}, {"measurement": "Wheat plant response rating", "setting": "[8]; Postemergence, 500 g ai/ha", "result": 50}, {"measurement": "Plant response rating, Wheat", "setting": "[8]; [14]", "result": 20}, {"measurement": "Plant response rating, Wheat", "setting": "[8]; [15]", "result": 40}, {"measurement": "Plant response rating, Barnyardgrass", "setting": "[9]; [16]", "result": 20}, {"measurement": "Barnyardgrass plant response rating", "setting": "[9]", "result": 0}, {"measurement": "Plant response rating, Ducksalad", "setting": "[10]; [16]", "result": 70}, {"measurement": "Ducksalad plant response rating", "setting": "[10]", "result": 40}, {"measurement": "Plant response rating, Rice", "setting": "[11]; [16]", "result": 0}, {"measurement": "Rice plant response rating", "setting": "[11]", "result": 0}, {"measurement": "Plant response rating, Sedge, Umbrella", "setting": "[12]; [16]", "result": 80}, {"measurement": "Sedge, Umbrella plant response rating", "setting": "[12]", "result": 70}]}
{"smiles": "CCc1ccc(-n2c(-c3cc(F)cc(F)c3)ncc(C(=O)C3=C(O)CCCC3=O)c2=O)cc1", "note": "[Compound 158]", "values": [{"measurement": "Plant response rating, Barnyardgrass", "setting": "[1]; [13]", "result": 90}, {"measurement": "Barnyardgrass plant response rating", "setting": "[1]; Postemergence, 500 g ai/ha", "result": 90}, {"measurement": "Plant response rating, Barnyardgrass", "setting": "[1]; [14]", "result": 20}, {"measurement": "Plant response rating, Barnyardgrass", "setting": "[1]; [15]", "result": 80}, {"measurement": "Plant response rating, Corn", "setting": "[2]; [13]", "result": 10}, {"measurement": "Corn plant response rating", "setting": "[2]; Postemergence, 500 g ai/ha", "result": 50}, {"measurement": "Plant response rating, Corn", "setting": "[2]; [14]", "result": 0}, {"measurement": "Plant response rating, Corn", "setting": "[2]; [15]", "result": 20}, {"measurement": "Plant response rating, Foxtail, Giant", "setting": "[3]; [13]", "result": 70}, {"measurement": "Foxtail, Giant plant response rating", "setting": "[3]; Postemergence, 500 g ai/ha", "result": 90}, {"measurement": "Plant response rating, Foxtail, Giant", "setting": "[3]; [14]", "result": 10}, {"measurement": "Plant response rating, Foxtail, Giant", "setting": "[3]; [15]", "result": 80}, {"measurement": "Plant response rating, Crabgrass, Large", "setting": "[4]; [13]", "result": 70}, {"measurement": "Crabgrass, Large plant response rating", "setting": "[4]; Postemergence, 500 g ai/ha", "result": 100}, {"measurement": "Plant response rating, Crabgrass, Large", "setting": "[4]; [14]", "result": 70}, {"measurement": "Plant response rating, Crabgrass, Large", "setting": "[4]; [15]", "result": 100}, {"measurement": "Plant response rating, Morningglory", "setting": "[5]; [13]", "result": 70}, {"measurement": "Morningglory plant response rating", "setting": "[5]; Postemergence, 500 g ai/ha", "result": 100}, {"measurement": "Plant response rating, Morningglory", "setting": "[5]; [14]", "result": 0}, {"measurement": "Plant response rating, Morningglory", "setting": "[5]; [15]", "result": 80}, {"measurement": "Plant response rating, Pigweed", "setting": "[6]; [13]", "result": 100}, {"measurement": "Pigweed plant response rating", "setting": "[6]; Postemergence, 500 g ai/ha", "result": 100}, {"measurement": "Plant response rating, Pigweed", "setting": "[6]; [14]", "result": 100}, {"measurement": "Plant response rating, Pigweed", "setting": "[6]; [15]", "result": 100}, {"measurement": "Plant response rating, Velvetleaf", "setting": "[7]; [13]", "result": 100}, {"measurement": "Velvetleaf plant response rating", "setting": "[7]; Postemergence, 500 g ai/ha", "result": 100}, {"measurement": "Plant response rating, Velvetleaf", "setting": "[7]; [14]", "result": 50}, {"measurement": "Plant response rating, Velvetleaf", "setting": "[7]; [15]", "result": 80}, {"measurement": "Plant response rating, Wheat", "setting": "[8]; [13]", "result": 0}, {"measurement": "Wheat plant response rating", "setting": "[8]; Postemergence, 500 g ai/ha", "result": 50}, {"measurement": "Plant response rating, Wheat", "setting": "[8]; [14]", "result": 0}, {"measurement": "Plant response rating, Wheat", "setting": "[8]; [15]", "result": 10}, {"measurement": "Plant response rating, Flood, Barnyardgrass", "setting": "[9]; [17]", "result": 60}, {"measurement": "Plant response rating, Barnyardgrass", "setting": "[9]; [18]", "result": 20}, {"measurement": "Plant response rating, Barnyardgrass", "setting": "[9]; [16]", "result": 20}, {"measurement": "Barnyardgrass plant response rating", "setting": "[9]", "result": 20}, {"measurement": "Plant response rating, Flood, Ducksalad", "setting": "[10]; [17]", "result": 100}, {"measurement": "Plant response rating, Ducksalad", "setting": "[10]; [18]", "result": 75}, {"measurement": "Plant response rating, Ducksalad", "setting": "[10]; [16]", "result": 100}, {"measurement": "Ducksalad plant response rating", "setting": "[10]", "result": 50}, {"measurement": "Plant response rating, Flood, Rice", "setting": "[11]; [17]", "result": 85}, {"measurement": "Plant response rating, Rice", "setting": "[11]; [18]", "result": 30}, {"measurement": "Plant response rating, Rice", "setting": "[11]; [16]", "result": 40}, {"measurement": "Rice plant response rating", "setting": "[11]", "result": 20}, {"measurement": "Plant response rating, Flood, Sedge, Umbrella", "setting": "[12]; [17]", "result": 100}, {"measurement": "Plant response rating, Sedge, Umbrella", "setting": "[12]; [18]", "result": 85}, {"measurement": "Plant response rating, Sedge, Umbrella", "setting": "[12]; [16]", "result": 100}, {"measurement": "Sedge, Umbrella plant response rating", "setting": "[12]", "result": 70}]}
